Key:
in vitro = conditions: African green monkey
Vero E6 cells [1] = assay type: cell-based, African Green monkey
SARS-CoV-2 [2] = tested on: SARS-CoV-2
SARS-CoV-2 [3] = test: microbe, parasite or virus in culture; conditions: Severe acute respiratory syndrome coronavirus 2, Vero C1008, read-out: IC50 inhibition of SARS-CoV-2 infection
U2OS osteosarcoma cells [4] = test: Suppression of cell proliferation; assay type: cell-based; conditions: Homo sapiens, 72 h, within 3 days, read-out: Inhibit Proliferation IC50
Procedure: (§1) The WX8-family of PIKfyve specific inhibitors disrupts multiple events in lysosome homeostasis (Table 1): • prevent lysosome fission without preventing homotypic lysosome fusion, thereby causing cytoplasmic vacuolization (enlarged lysosomes). Cytoplasmic vacuolization is evident within 30 minutes and reversible for up to 24-48 hours (1Vacuoles). • inhibit trafficking of molecules into lysosomes, thereby reducing lysosomal activity • inhibit maturation of lysosome cathepsins, thereby reducing lysosomal activity • disrupt endosome trafficking, thereby reducing cellular uptake of extracellular materials • inhibit cell proliferation (^3Proliferation) • disrupt autophagy by preventing heterotypic fusion of lysosomes with autophagosomes (^2LC3-II), thereby inducing cell death in autophagy-dependent cancer cells (^4Viability) under conditions where non-malignant cells remain viable.

U2OS osteosarcoma cells [5] = test: Reduction of cellular ATP levels (viability); assay type: cell-based; conditions: Homo sapiens, 96 h, within 4 days, read-out: Inhibit Viability IC50 (cellular ATP levels)
Procedure: as §1

U2OS osteosarcoma cells [6] = test: Induction of vacuoles (enlarged lysosomes); assay type: cell-based; conditions: within 4 hours
Procedure: as §1

U2OS osteosarcoma cells [7] = test: LC3-II (autophagosome) accumulation; assay type: cell-based; conditions: Homo sapiens, within 4 to 8 hours, read-out: Accumulate LC3-II EC50
Procedure: as §1

Vero E6 cells [8] = test: Vero E6 cell death, annexin-V / propidium iodide FACS; assay type: cell-based, African Green monkey; conditions: Chlorocebus sabaeus, Vero C1008, 72 h; 3 days, annexin-V and propidium iodide staining; read-out: IC50 Vero E6 cell death (fraction of live cells)
Procedure: (§2) FIG. 4. […] Vero E6 cells were plated at low density and then cultured overnight before adding WX8 at the concentrations indicated and then cultured for 3 days. (A) Attached cells were collected by trypsinization and counted. The fraction of cells (%) as well as the change in the total number of cells (fold change) relative to cells cultured in the presence of the WX8 vehicle control are given. (B) Attached and unattached cells were combined and stained with annexin-V to identify cells undergoing apoptosis and propidium iodide (PI) to identify dead cells that were permeable to a nuclear DNA stain. The cells were then analyzed by fluorescence activated cell sorting. Quadrant (Q) Q3 contained the unstained (live) cells. Q1 contained cells stained only with annexin-V (early apoptosis). Q2 contained cells stained with both annexin-V and PI (apoptotic dead cells). Q4 contained cells stained only with PI (necrotic dead cells). (C) Data were normalized to the fraction of live cells. Error bars indicate ±SEM. (D) Cells were first permeabilized, stained with PI and then analyzed by fluorescence activated cell sorting in order to quantify the fraction of cells with <2N DNA content. (E) The fraction of cells with <2N DNA content ±SEM.
(§3) WX8 inhibited Vero E6 cell proliferation with an IC50 of 0.4 μM (FIG. 4A). However, 100-fold higher concentrations of WX8 were required to induce cell death. […]

PIKfyve = PIKfyve (Homo sapiens, UniProt Q9Y2I7); test: biochemical
Procedure: (§4) Each kinase was tagged with a unique DNA sequence that allowed the amount of protein bound to the solid support to be quantified by PCR. The mean equilibrium dissociation constant (Kd) for each compound was then determined for the top three hits (PIKFYVE, PIP4K2C and MTOR) from two independent titration curves. A dissociation constant (Kd) was calculated by measuring the amount of kinase captured on the solid support as a function of the test compound concentration (nM) on a log10 scale. Mean Kd values (±range) are given for each WX8-family member. The ratios of PIP4K2C/PIKfyve and mTOR/PIKfyve indicate the relative specificity of each compound for PIKfyve.

Vero E6 cells [9] = test: Vero E6 loss of cellular DNA (PI FACS); assay type: cell-based, African Green monkey; conditions: Chlorocebus sabaeus, Vero C1008, 72 h, read-out: IP50 for loss of cellular DNA
Procedure: as §2, §3

[10] = tested on: 'autophagy-addicted' human melanoma cells; assay type: cell-based
Vero E6 cells [11] = test: Vero E6 cell proliferation (attached cell count); assay type: cell-based, African Green monkey; conditions: Chlorocebus sabaeus, Vero C1008, 72 h; cultured for 3 days
Procedure: as §2, §3

PIP4K2C = biological target: T1, PIP4K2C (Homo sapiens, UniProt Q8TBX8); conditions: ratio of Kd values
T1 sequence (Q8TBX8 1-421): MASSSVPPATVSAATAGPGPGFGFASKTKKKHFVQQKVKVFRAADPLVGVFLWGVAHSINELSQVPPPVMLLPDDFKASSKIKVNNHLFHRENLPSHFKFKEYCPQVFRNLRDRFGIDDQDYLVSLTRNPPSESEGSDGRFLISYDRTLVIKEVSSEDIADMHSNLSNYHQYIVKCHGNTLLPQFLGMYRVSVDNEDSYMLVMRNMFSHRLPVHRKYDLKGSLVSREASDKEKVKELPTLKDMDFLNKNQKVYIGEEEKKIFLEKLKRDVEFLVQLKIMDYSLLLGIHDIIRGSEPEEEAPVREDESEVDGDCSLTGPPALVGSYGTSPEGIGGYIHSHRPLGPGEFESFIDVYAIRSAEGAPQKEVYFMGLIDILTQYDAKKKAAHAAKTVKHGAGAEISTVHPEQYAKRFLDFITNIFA
Procedure: as §4

Sequence of PIKfyve (Q9Y2I7 whole entry): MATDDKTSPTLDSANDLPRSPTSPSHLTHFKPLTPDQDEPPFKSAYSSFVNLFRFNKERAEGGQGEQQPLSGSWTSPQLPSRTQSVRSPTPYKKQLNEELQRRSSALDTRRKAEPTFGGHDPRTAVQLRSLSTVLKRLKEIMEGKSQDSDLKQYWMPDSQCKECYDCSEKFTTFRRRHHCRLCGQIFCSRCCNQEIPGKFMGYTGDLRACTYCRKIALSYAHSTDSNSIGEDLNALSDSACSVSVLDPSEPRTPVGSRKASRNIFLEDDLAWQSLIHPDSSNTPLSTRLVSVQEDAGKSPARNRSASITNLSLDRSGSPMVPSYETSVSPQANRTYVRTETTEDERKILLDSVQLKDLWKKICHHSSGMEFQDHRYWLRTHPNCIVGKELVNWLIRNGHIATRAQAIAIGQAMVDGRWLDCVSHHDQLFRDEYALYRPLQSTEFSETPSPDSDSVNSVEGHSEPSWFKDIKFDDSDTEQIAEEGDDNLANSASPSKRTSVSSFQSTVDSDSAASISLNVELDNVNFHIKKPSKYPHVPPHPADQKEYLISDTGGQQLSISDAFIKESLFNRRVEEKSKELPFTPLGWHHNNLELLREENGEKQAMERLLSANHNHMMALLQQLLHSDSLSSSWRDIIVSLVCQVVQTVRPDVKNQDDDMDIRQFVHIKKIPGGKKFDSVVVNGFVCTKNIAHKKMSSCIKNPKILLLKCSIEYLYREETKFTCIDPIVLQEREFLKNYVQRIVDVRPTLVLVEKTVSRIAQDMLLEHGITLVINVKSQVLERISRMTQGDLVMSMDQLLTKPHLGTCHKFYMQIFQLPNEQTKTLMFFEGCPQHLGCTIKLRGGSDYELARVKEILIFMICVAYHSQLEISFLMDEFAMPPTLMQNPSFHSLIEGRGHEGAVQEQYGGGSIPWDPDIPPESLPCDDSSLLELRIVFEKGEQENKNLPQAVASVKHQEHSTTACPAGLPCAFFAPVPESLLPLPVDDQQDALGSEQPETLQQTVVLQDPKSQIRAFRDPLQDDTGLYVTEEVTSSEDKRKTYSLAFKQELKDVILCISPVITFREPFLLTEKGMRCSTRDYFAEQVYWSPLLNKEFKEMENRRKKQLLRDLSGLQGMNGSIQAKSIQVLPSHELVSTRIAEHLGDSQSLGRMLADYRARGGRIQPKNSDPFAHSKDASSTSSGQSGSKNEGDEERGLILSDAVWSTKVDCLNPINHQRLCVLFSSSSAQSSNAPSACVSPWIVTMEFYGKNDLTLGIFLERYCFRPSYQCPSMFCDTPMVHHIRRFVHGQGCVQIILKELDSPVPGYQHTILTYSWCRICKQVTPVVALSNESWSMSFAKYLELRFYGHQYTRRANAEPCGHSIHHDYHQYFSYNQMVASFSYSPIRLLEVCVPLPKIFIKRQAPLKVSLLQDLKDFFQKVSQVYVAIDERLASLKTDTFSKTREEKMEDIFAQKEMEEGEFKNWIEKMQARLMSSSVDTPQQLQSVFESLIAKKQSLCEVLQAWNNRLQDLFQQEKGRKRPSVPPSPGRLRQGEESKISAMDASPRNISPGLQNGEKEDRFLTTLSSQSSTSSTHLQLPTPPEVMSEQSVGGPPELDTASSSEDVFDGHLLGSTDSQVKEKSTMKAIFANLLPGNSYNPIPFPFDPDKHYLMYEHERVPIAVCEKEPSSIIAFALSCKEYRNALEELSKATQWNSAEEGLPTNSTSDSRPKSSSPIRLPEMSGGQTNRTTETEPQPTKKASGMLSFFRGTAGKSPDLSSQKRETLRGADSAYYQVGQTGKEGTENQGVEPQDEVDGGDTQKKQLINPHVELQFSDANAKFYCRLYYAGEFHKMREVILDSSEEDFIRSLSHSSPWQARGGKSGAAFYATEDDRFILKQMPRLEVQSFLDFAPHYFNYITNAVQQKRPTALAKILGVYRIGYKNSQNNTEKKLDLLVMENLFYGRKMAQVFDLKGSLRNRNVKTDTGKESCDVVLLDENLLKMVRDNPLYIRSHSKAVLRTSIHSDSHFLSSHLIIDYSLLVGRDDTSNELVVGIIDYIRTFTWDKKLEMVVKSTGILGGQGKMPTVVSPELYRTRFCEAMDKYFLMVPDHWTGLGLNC

SMILES | CC50 (in vitro) | accumulation of cytoplasmic vacuoles (Vero E6 cells [1]) | CC50/IC50 (SARS-CoV-2 [2]) | IC50 (SARS-CoV-2 [3]) | IC50 (U2OS osteosarcoma cells [4]) | IC50 (U2OS osteosarcoma cells [5]) | Accumulate Vacuoles EC (U2OS osteosarcoma cells [6]) | EC50 (U2OS osteosarcoma cells [7]) | IC50 (Vero E6 cells [8]) | Kd (PIKfyve) | IC50 (Vero E6 cells [9]) | lethality relative to chloroquine [10] | IC50 (Vero E6 cells [11]) | affinity for PIKfyve relative to PIP4K2C (PIP4K2C/PIKfyve) (PIP4K2C)
Cc1cccc(/C=N/Nc2cc(N3CCOCC3)nc(OCCc3ccccn3)n2)c1 [Apilimod, reference compound] | 33000 nM | rapidly accumulated cytoplasmic vacuoles | 22,027 | 1.5 nM | – | – | – | – | – | – | – | – | – | –
Cc1cccc(/C=N/Nc2cc(N3CCOCC3)nc(N3CCOCC3)n2)c1 [NDF] | 26300 nM | rapidly accumulated cytoplasmic vacuoles | 52 | 499 nM | 1100 nM | 420 nM | 0.1 µM | 1500 nM | – | – | – | – | – | –
C(=N\Nc1cc(N2CCOCC2)nc(N2CCOCC2)n1)/c1ccccc1 [WWL] | 40300 nM | rapidly accumulated cytoplasmic vacuoles | 16 | 2440 nM | 1600 nM | 2600 nM | 0.2 µM | 6500 nM | – | – | – | – | – | –
C1=Nc2ccccc2/C1=C/NNc1nc(Nc2ccccc2)nc(N2CCOCC2)n1 [WX8] | 42300 nM | rapidly accumulated cytoplasmic vacuoles | 245 | 172 nM | 200 nM | 350 nM | 0.01 µM | 300 nM | 70000 nM | < 1 nM | 60000 nM | 100 times | 400 nM | 366 fold
CCc1ccc(Nc2nc(N3CCOCC3)nc(N3CCOCC3)n2)cc1 [XB6] | – | – | – | – | 7400 nM | 5300 nM | 2 µM | > 10000 nM | – | – | – | – | – | –
Fc1ccc(Nc2nc(N3CCOCC3)nc(N3CCOCC3)n2)cc1Cl [XBA] | – | – | – | – | 4000 nM | > 10000 nM | 4 µM | 7500 nM | – | – | – | – | – | –

From patent publication US20250268904A1 (priority 2020, published 2025)
